Results as given in patent publication US20100120690A1, “Polypeptides Having Antimicrobial Activity and Polynucleotides Encoding Same” (Novozymes Adenium Biotech A/S, priority 2005, published 2010).

System: Staphylococcus carnosus ATCC51365
Assay: Yeast screening assay: radial diffusion assay of yeast supernatants
Format: cell-based
Design: key: An activity of 3 is better than Plectasin; An activity of 2 corresponds to the activity of Plectasin; 1 is worse than Plectasin
Conditions: yeast supernatant, clearing zone in radial diffusion assay
Description: A range of antimicrobial polypeptides, which are variants of SEQ ID NO: 1 (Plectasin), were tested for antimicrobial activity by expressing them in S. cerevisae and screening the supernatant of the yeast transformants for antimicrobial activity against Staphylococcus carnosus ATCC51365.
Radial Diffusion Assay was carried out as described in Methods in Molecular Biology, Vol. 78, Antibacterial peptide protocol, William M. Shafer, Human Press.
200-300 yeast transformant colonies were plated on 14 cm round plates containing 25 mL SC growth medium supplemented with 1.5% galactose, 0.5% glucose and 1.5% agarose. Plates were incubated for three hours at room temperature, overlaid with 25 mL of the same growth medium and allowed to grow for three days at 30° C. Then the plates were overlaid with 25 mL of LB growth medium containing 1.5% agarose and 10^5 cells of the indicator strain Staphylococcus carnosus and incubated at 30° C. overnight to allow growth of the bacterial cells. Next day, the plates were stained with 1.5 mM MTT to facilitate visualization of the clearing zones.
Yeast colonies creating clearing zones were transferred to microtiter plates containing 200 micro-L of SC growth medium supplemented with 2% glucose and ampicillin (100 mg/L). Such plates designated “master plates” were incubated for 2 days at 30° C. with shaking at 450 rpm to allow yeast growth.
10 micro-L SC growth medium from each well of the master plates were transferred to new microtiter plates containing 200 micro-L SC growth medium with 1.5% galactose and 0.5% glucose. These plates were called daughter plates and were incubated for 3 days at 30° C. under 450 rpm shaking to allow yeast growth and peptide synthesis.
Finally a Radial Diffusion Assay (RDA) was performed following the protocol described in Methods in Molecular Biology to analyse and quantify the antimicrobial activity of the yeast supernatants against S. carnosus.
Briefly, 30 mL of minimal underlay medium containing 1% agarose and 5×10^5 cfu/mL of S. carnosus was poured in an omnitray plate (Nunc, 242811). A Nunc TSP plate (#445497) was inserted immediately on the plate to allow a 96 well pattern formation. Once the media had solidified, the TSP plate was removed and 10 micro-L of yeast supernatant samples were applied on the holes. Plates were incubated 3 hours at 37° C. and overlaid with 15 mL of LB agar growth medium. Finally, plates were incubated overnight at 37° C. and coloured with 1.5 mM MTT to visualize the clearing zones.
Inspection and measurements of the clearing zones was performed on the plates. The corresponding yeast clones resulting in clearing zones of similar or increased size than the clones encoding for wild type plectasin were picked from the master plates and transferred to agar plates containing SC growth medium with 2% glucose and ampicillin (100 mg/L). Such plates were incubated for further 2 days at 30° C. to allow yeast growth. Subsequently, colony PCR was performed followed by sequence analysis to identify amino acid changes in the plectasin sequence.
An activity of 2 corresponds to the activity of Plectasin. An activity of 3 is better than Plectasin, and 1 is worse than Plectasin.

“GFGCKGPWDEGDMQCHNHCKSIKGYKGGYCAKGGFVCKCY [N5K + D11G]” was tested, and the “Activity (antimicrobial activity relative to the activity of plectasin)” value was 3.

“GFGCLGPWDEDDMQCHNHCKSIKGYKGGYCAKGGFVCKCY [Mutation N5L]” was tested, and the “Activity (antimicrobial activity relative to the activity of plectasin)” value was 2.

For “GFGCMGPWDEDDMQCHNHCKSIKGYKGGYCAKGGFVCKCY [Mutation N5M]”, the “Activity (antimicrobial activity relative to the activity of plectasin)” value was 2.

For “GFGCNAPWDEDDMQCHNHCKSIKGYKGGYCAKGGFVCKCY [Mutation G6A]”, the “Activity (antimicrobial activity relative to the activity of plectasin)” value was 2.

“GFGCNGAWDEDDMQCHNHCKSIKGYKGGYCAKGGFVCKCY [Mutation P7A]” was tested, and the “Activity (antimicrobial activity relative to the activity of plectasin)” value was 2.

For “GFGCNGKWDEDDMQCHNHCKSIKGYKGGYCAKGGFVCKCY [Mutation P7K]”, the “Activity (antimicrobial activity relative to the activity of plectasin)” value was 3.

In the case of “GFGCNGLWDEDDMQCHNHCKSIKGYKGGYCAKGGFVCKCY [Mutation P7L]”, the “Activity (antimicrobial activity relative to the activity of plectasin)” value is reported as 2.

In the case of “GFGCNGPRDEDDMQCHNHCKSIKGYKGGYCAKGGFVCKCY [Mutation W8R]”, the “Activity (antimicrobial activity relative to the activity of plectasin)” value is reported as 3.

With “GFGCNGPRDEDDRQCHNHCKSIKGYKGGYCAKGGFVCKCY [W8R + M13R]” the “Activity (antimicrobial activity relative to the activity of plectasin)” value was 3.

For “GFGCNGPWAEDDMQCHNHCKSIKGYKGGYCAKGGFVCKCY [Mutation D9A]”, the “Activity (antimicrobial activity relative to the activity of plectasin)” value was 3.

In the case of “GFGCNGPWCEDDMQCHNHCKSIKGYKGGYCAKGGFVCKCY [Mutation D9C]”, the “Activity (antimicrobial activity relative to the activity of plectasin)” value is reported as 2.

“GFGCNGPWDADDMQCHNHCKSIKGYKGGYCAKGGFVCKCY [Mutation E10A]” was tested, and the “Activity (antimicrobial activity relative to the activity of plectasin)” value was 2.

For “GFGCNGPWDCDDMQCHNHCKSIKGYKGGYCAKGGFVCKCY [Mutation E10C]”, the “Activity (antimicrobial activity relative to the activity of plectasin)” value was 2.

For “GFGCNGPWDEADMQCHNHCKSIKGYKGGYCAKGGFVCKCY [Mutation D11A]”, the “Activity (antimicrobial activity relative to the activity of plectasin)” value was 2.

With “GFGCNGPWDECDMQCHNHCKSIKGYKGGYCAKGGFVCKCY [Mutation D11C]” the “Activity (antimicrobial activity relative to the activity of plectasin)” value was 2.

With “GFGCNGPWDEDDAQCHNHCKSIKGYKGGYCAKGGFVCKCY [Mutation M13A]” the “Activity (antimicrobial activity relative to the activity of plectasin)” value was 2.

“GFGCNGPWDEDDFQCHNHCKSIKGYKGGYCAKGGFVCKCY [Mutation M13F]” was tested, and the “Activity (antimicrobial activity relative to the activity of plectasin)” value was 2.

In the case of “GFGCNGPWDEDDGQCHNHCKSIKGYKGGYCAKGGFVCKCY [Mutation M13G]”, the “Activity (antimicrobial activity relative to the activity of plectasin)” value is reported as 2.

With “GFGCNGPWDEDDLQCHNHCKSIKGYKGGYCAKGGFVCKCY [Mutation M13L]” the “Activity (antimicrobial activity relative to the activity of plectasin)” value was 2.

In the case of “GFGCNGPWDEDDMACHNHCKSIKGYKGGYCAKGGFVCKCY [Mutation Q14A]”, the “Activity (antimicrobial activity relative to the activity of plectasin)” value is reported as 2.

“GFGCNGPWDEDDMCCHNHCKSIKGYKGGYCAKGGFVCKCY [Mutation Q14C]” was tested, and the “Activity (antimicrobial activity relative to the activity of plectasin)” value was 2.

For “GFGCNGPWDEDDMHCHNHCKSIKGYKGGYCAKGGFVCKCY [Mutation Q14H]”, the “Activity (antimicrobial activity relative to the activity of plectasin)” value was 3.

With “GFGCNGPWDEDDMICHNHCKSIKGYKGGYCAKGGFVCKCY [Mutation Q14I]” the “Activity (antimicrobial activity relative to the activity of plectasin)” value was 2.

“GFGCNGPWDEDDMKCHNHCKSIKGYKGGYCAKGGFVCKCY [Mutation Q14K]” was tested, and the “Activity (antimicrobial activity relative to the activity of plectasin)” value was 2.

For “GFGCNGPWDEDDMMCHNHCKSIKGYKGGYCAKGGFVCKCY [Mutation Q14M]”, the “Activity (antimicrobial activity relative to the activity of plectasin)” value was 2.

For “GFGCNGPWDEDDMPCHNHCKSIKGYKGGYCAKGGFVCKCY [Mutation Q14P]”, the “Activity (antimicrobial activity relative to the activity of plectasin)” value was 2.

In the case of “GFGCNGPWDEDDMQCHNACKSIKGYKGGYCAKGGFVCKCY [Mutation H18A]”, the “Activity (antimicrobial activity relative to the activity of plectasin)” value is reported as 2.
